Source: patent publication US12371454B2, “Cyclic peptide compound having Kras inhibitory action” (priority 2019, dated 2025)
Starred links: 1 amine or outer side, 2 acyl side, 3 side chain; linkers in the order of their positions; H or OH if unused. Positions of bridges follow the written chain, without caps; N, C: chain ends. Non-standard residues stand in square brackets, D forms with d. Residues, ends and D or L forms follow the SMILES beside them. *: point of attachment. hPhe(3-Cl-4-CF3) = N[C@@H](CCc1ccc(C(F)(F)F)c(Cl)c1)C(=O)O; NMePhe(4-Me) = CN[C@@H](Cc1ccc(C)cc1)C(=O)O; NMedβ3hAla = C[C@H](CC(=O)[*:2])N(C)[*:1]; NMeNva(5,5-F2) = CN[C@@H](CCC(F)F)C(=O)O; NMeGly(cPent) = CN[C@H](C(=O)O)C1CCCC1; NMe3Pal = CN[C@@H](Cc1cccnc1)C(=O)O; NMeCha = CN[C@@H](CC1CCCCC1)C(=O)O; Hyp = O=C(O)[C@@H]1C[C@@H](O)CN1; NMeAhp(2) = CCCCC[C@H](NC)C(=O)O; NMeChg = CN[C@H](C(=O)O)C1CCCCC1; NMeI = CC[C@H](C)[C@H](NC)C(=O)O; NMeD = CN[C@@H](CC(=O)O)C(=O)O; NMeL = CN[C@@H](CC(C)C)C(=O)O; NMeNle = CCCC[C@H](NC)C(=O)O; NMeV = CN[C@H](C(=O)O)C(C)C; NMeS = CN[C@@H](CO)C(=O)O; Morpholide = C1CN(*)CCO1; NMeA = CN[C@@H](C)C(=O)O; Piperidide = C1CCN(*)CC1; Pyrrolidide = C1CCN(*)C1; dNMeA = CN[C@H](C)C(=O)O; Ac5c = NC1(C(=O)O)CCCC1; Aze = O=C(O)[C@@H]1CCN1; Cyclopropyl = C1CC1*; Sar = CNCC(=O)O; Propyl = CCC*

System: Human pancreatic cancer cell line AsPC-1
Assay: Measurement of AsPC-1 cell growth inhibition (AsPC-1 CGI)
Format: cell-based
Details: 96 h
Summary of the method: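 AsPC-1 cells in 15% FBS RPMI-1640 were exposed to test compound for 96 hours at 37° C, with CellTiter-Glo as endpoint.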

| SMILES | IC50 |
| --- | --- |
| CC[C@H](C)[C@@H]1NC(=O)[C@H](CC(C)C)N(C)C(=O)C[C@@H](C(=O)N(C)C)N(C)C(=O)[C@H](C2CCCCC2)N(C)C(=O)C2(CCCC2)NC(=O)[C@@H]2CCCN2C(=O)[C@H](CCc2ccc(C(F)(F)F)c(Cl)c2)NC(=O)CN(C)C(=O)[C@H](Cc2ccc(C)cc2)N(C)C(=O)[C@@H]2CCN2C(=O)[C@H](C)N(C)C1=O [Compound 1685] ([NMeL]I[NMeA][Aze][NMePhe(4-Me)][Sar][hPhe(3-Cl-4-CF3)]P[Ac5c][NMeChg][NMeD]-NMe2; lactam N-11) | 0.02 to 0.05 µM |
| CC[C@H](C)[C@@H]1NC(=O)[C@H](CC(C)C)N(C)C(=O)C[C@@H](C(=O)N2CCCC2)N(C)C(=O)[C@H](C2CCCCC2)N(C)C(=O)C2(CCCC2)NC(=O)[C@H](Cc2cccnc2)N(C)C(=O)[C@H](CCc2ccc(C(F)(F)F)c(Cl)c2)NC(=O)CN(C)C(=O)[C@H](CC2CCCCC2)N(C)C(=O)CN(C)C(=O)CN(C)C1=O [Compound 1693] ([NMeL]I[Sar][Sar][NMeCha][Sar][hPhe(3-Cl-4-CF3)][NMe3Pal][Ac5c][NMeChg][NMeD]-Pyrrolidide; lactam N-11) | 0.1 to 0.5 µM |
| CCCCC[C@H]1C(=O)N[C@@H]([C@@H](C)CC)C(=O)N(C)[C@@H](C)C(=O)N2CC[C@H]2C(=O)N(C)[C@@H](CC2CCCCC2)C(=O)N(C)CC(=O)N[C@@H](CCc2ccc(C(F)(F)F)c(Cl)c2)C(=O)N2CCC[C@H]2C(=O)NC2(CCCC2)C(=O)N(C)[C@@H](C(C)C)C(=O)N(C)[C@H](C(=O)N2CCCCC2)CC(=O)N1C [Compound 1705] ([NMeAhp(2)]I[NMeA][Aze][NMeCha][Sar][hPhe(3-Cl-4-CF3)]P[Ac5c][NMeV][NMeD]-Piperidide; lactam N-11) | 0.1 to 0.5 µM |
| CCCC[C@H]1C(=O)N(C)CC(=O)N[C@@H](CCc2ccc(C(F)(F)F)c(Cl)c2)C(=O)N2CCC[C@H]2C(=O)NC2(CCCC2)C(=O)N(C)[C@@H](C(C)C)C(=O)N(C)[C@H](C(=O)N2CCCCC2)CC(=O)N(C)[C@@H](CC(C)C)C(=O)N[C@@H]([C@@H](C)CC)C(=O)N(C)[C@@H](C)C(=O)N2CC[C@H]2C(=O)N1C [Compound 1712] ([NMeL]I[NMeA][Aze][NMeNle][Sar][hPhe(3-Cl-4-CF3)]P[Ac5c][NMeV][NMeD]-Piperidide; lactam N-11) | 0.1 to 0.5 µM |
| CC[C@H](C)[C@@H]1NC(=O)[C@H](CC(C)C)N(C)C(=O)C[C@@H](C)N(C)C(=O)[C@H](C2CCCC2)N(C)C(=O)C2(CCCC2)NC(=O)[C@@H]2CCCN2C(=O)[C@H](CCc2ccc(C(F)(F)F)c(Cl)c2)NC(=O)CN(C)C(=O)[C@H](CC2CCCCC2)N(C)C(=O)[C@@H]2CCN2C(=O)[C@H](C)N(C)C1=O [Compound 1717] (cyclo([Ac5c][NMeGly(cPent)][NMedβ3hAla][NMeL]I[NMeA][Aze][NMeCha][Sar][hPhe(3-Cl-4-CF3)]P)) | 0.05 to 0.1 µM |
| CC[C@H](C)[C@@H]1NC(=O)[C@H](CC(C)C)N(C)C(=O)C[C@@H](C(=O)N2CCCCC2)N(C)C(=O)[C@H]([C@@H](C)CC)N(C)C(=O)C2(CCCC2)NC(=O)[C@@H]2CCCN2C(=O)[C@H](CCc2ccc(C(F)(F)F)c(Cl)c2)NC(=O)CN(C)C(=O)[C@H](CC2CCCCC2)N(C)C(=O)[C@@H]2CCN2C(=O)[C@H](C)N(C)C1=O [Compound 1722] ([NMeL]I[NMeA][Aze][NMeCha][Sar][hPhe(3-Cl-4-CF3)]P[Ac5c][NMeI][NMeD]-Piperidide; lactam N-11) | 0.02 to 0.05 µM |
| CC[C@H](C)[C@@H]1NC(=O)[C@H](CC(C)C)N(C)C(=O)C[C@@H](C(=O)N2CCCCC2)N(C)C(=O)[C@H]([C@@H](C)CC)N(C)C(=O)C2(CCCC2)NC(=O)[C@@H]2CCCN2C(=O)[C@H](CCc2ccc(C(F)(F)F)c(Cl)c2)NC(=O)CN(C)C(=O)[C@H](Cc2ccc(C)cc2)N(C)C(=O)[C@@H]2CCN2C(=O)[C@H](C)N(C)C1=O [Compound 1727] ([NMeL]I[NMeA][Aze][NMePhe(4-Me)][Sar][hPhe(3-Cl-4-CF3)]P[Ac5c][NMeI][NMeD]-Piperidide; lactam N-11) | 0.02 to 0.05 µM |
| CC[C@H](C)[C@@H]1NC(=O)[C@H](CC(C)C)N(C)C(=O)C[C@@H](C(=O)N2CCCCC2)N(C)C(=O)[C@H](C(C)C)N(C)C(=O)C2(CCCC2)NC(=O)[C@@H]2CCCN2C(=O)[C@H](CCc2ccc(C(F)(F)F)c(Cl)c2)NC(=O)CN(C)C(=O)[C@H](C(C)C)N(C)C(=O)[C@@H]2CCN2C(=O)[C@H](C)N(C)C1=O [Compound 1737] ([NMeL]I[NMeA][Aze][NMeV][Sar][hPhe(3-Cl-4-CF3)]P[Ac5c][NMeV][NMeD]-Piperidide; lactam N-11) | 0.1 to 0.5 µM |
| CCO[C@@H]1C[C@H]2C(=O)NC3(CCCC3)C(=O)N(C)[C@@H](CC(C)C)C(=O)N(C)[C@H](C(=O)N3CCCC3)CC(=O)N(C)[C@@H](CC(C)C)C(=O)N[C@@H]([C@@H](C)CC)C(=O)N(C)CC(=O)N(C)CC(=O)N(C)[C@@H](CC3CCCCC3)C(=O)N(C)CC(=O)N[C@@H](CCc3ccc(C(F)(F)F)c(Cl)c3)C(=O)N2C1 [Compound 1748] ([NMeL]I[Sar][Sar][NMeCha][Sar][hPhe(3-Cl-4-CF3)][Hyp](Et)[Ac5c][NMeL][NMeD]-Pyrrolidide; lactam N-11) | 0.05 to 0.1 µM |
| CC[C@H](C)[C@@H]1NC(=O)[C@H](CC(C)C)N(C)C(=O)C[C@@H](C(=O)N2CCOCC2)N(C)C(=O)[C@H](C(C)C)N(C)C(=O)C2(CCCC2)NC(=O)[C@@H]2CCCN2C(=O)[C@H](CCc2ccc(C(F)(F)F)c(Cl)c2)NC(=O)CN(C)C(=O)[C@H](CC2CCCCC2)N(C)C(=O)[C@@H]2CCN2C(=O)CN(C)C1=O [Compound 1758] ([NMeL]I[Sar][Aze][NMeCha][Sar][hPhe(3-Cl-4-CF3)]P[Ac5c][NMeV][NMeD]-Morpholide; lactam N-11) | 0.1 to 0.5 µM |
| CCCOC[C@H]1C(=O)N[C@@H]([C@@H](C)CC)C(=O)N(C)[C@@H](C)C(=O)N2CC[C@H]2C(=O)N(C)[C@@H](CC2CCCCC2)C(=O)N(C)CC(=O)N[C@@H](CCc2ccc(C(F)(F)F)c(Cl)c2)C(=O)N2CCC[C@H]2C(=O)NC2(CCCC2)C(=O)N(C)[C@@H](C(C)C)C(=O)N(C)[C@H](C(=O)N2CCCCC2)CC(=O)N1C [Compound 1763] ([NMeS](Propyl)I[NMeA][Aze][NMeCha][Sar][hPhe(3-Cl-4-CF3)]P[Ac5c][NMeV][NMeD]-Piperidide; lactam N-11) | 0.1 to 0.5 µM |
| CC[C@H](C)[C@@H]1NC(=O)[C@H](COC2CC2)N(C)C(=O)C[C@@H](C(=O)N2CCCCC2)N(C)C(=O)[C@H](C(C)C)N(C)C(=O)C2(CCCC2)NC(=O)[C@@H]2CCCN2C(=O)[C@H](CCc2ccc(C(F)(F)F)c(Cl)c2)NC(=O)CN(C)C(=O)[C@H](CC2CCCCC2)N(C)C(=O)[C@@H]2CCN2C(=O)[C@H](C)N(C)C1=O [Compound 1764] ([NMeS](Cyclopropyl)I[NMeA][Aze][NMeCha][Sar][hPhe(3-Cl-4-CF3)]P[Ac5c][NMeV][NMeD]-Piperidide; lactam N-11) | 0.1 to 0.5 µM |
| CC[C@H](C)[C@@H]1NC(=O)[C@H](C(C)C)N(C)C(=O)C[C@@H](C(=O)N2CCCCC2)N(C)C(=O)[C@H](C(C)C)N(C)C(=O)C2(CCCC2)NC(=O)[C@@H]2CCCN2C(=O)[C@H](CCc2ccc(C(F)(F)F)c(Cl)c2)NC(=O)CN(C)C(=O)[C@H](CC2CCCCC2)N(C)C(=O)[C@@H]2CCN2C(=O)[C@H](C)N(C)C1=O [Compound 1767] ([NMeV]I[NMeA][Aze][NMeCha][Sar][hPhe(3-Cl-4-CF3)]P[Ac5c][NMeV][NMeD]-Piperidide; lactam N-11) | 0.1 to 0.5 µM |
| CC[C@H](C)[C@@H]1NC(=O)[C@H](C)N(C)C(=O)C[C@@H](C)N(C)C(=O)[C@H](C(C)C)N(C)C(=O)C2(CCCC2)NC(=O)[C@@H]2CCCN2C(=O)[C@H](CCc2ccc(C(F)(F)F)c(Cl)c2)NC(=O)[C@@H](C)N(C)C(=O)[C@H](CC2CCCCC2)N(C)C(=O)[C@@H]2CCN2C(=O)[C@H](C)N(C)C1=O [Compound 1773] (cyclo([Ac5c][NMeV][NMedβ3hAla][NMeA]I[NMeA][Aze][NMeCha][dNMeA][hPhe(3-Cl-4-CF3)]P)) | 0.1 to 0.5 µM |
| CCO[C@@H]1C[C@H]2C(=O)NC3(CCCC3)C(=O)N(C)[C@@H](CC(C)C)C(=O)N(C)[C@H](C(=O)N3CCOCC3)CC(=O)N(C)[C@@H](CC(C)C)C(=O)N[C@@H]([C@@H](C)CC)C(=O)N(C)CC(=O)N(C)CC(=O)N(C)[C@@H](CC3CCCCC3)C(=O)N(C)CC(=O)N[C@@H](CCc3ccc(C(F)(F)F)c(Cl)c3)C(=O)N2C1 [Compound 1785] ([NMeL]I[Sar][Sar][NMeCha][Sar][hPhe(3-Cl-4-CF3)][Hyp](Et)[Ac5c][NMeL][NMeD]-Morpholide; lactam N-11) | 0.05 to 0.1 µM |
| CC(C)C[C@H]1C(=O)N[C@@H](C(C)C)C(=O)N(C)[C@@H](C)C(=O)N2CC[C@H]2C(=O)N(C)[C@@H](CC2CCCCC2)C(=O)N(C)CC(=O)N[C@@H](CCc2ccc(C(F)(F)F)c(Cl)c2)C(=O)N2CCC[C@H]2C(=O)NC2(CCCC2)C(=O)N(C)[C@@H](C(C)C)C(=O)N(C)[C@H](C(=O)N2CCCCC2)CC(=O)N1C [Compound 1791] ([NMeL]V[NMeA][Aze][NMeCha][Sar][hPhe(3-Cl-4-CF3)]P[Ac5c][NMeV][NMeD]-Piperidide; lactam N-11) | 0.1 to 0.5 µM |
| CC[C@H](C)[C@@H]1NC(=O)[C@H](CC(C)C)N(C)C(=O)C[C@@H](C(=O)N2CCCCC2)N(C)C(=O)[C@H](C2CCCCC2)N(C)C(=O)C2(CCCC2)NC(=O)[C@@H]2CCCN2C(=O)[C@H](CCc2ccc(C(F)(F)F)c(Cl)c2)NC(=O)CN(C)C(=O)[C@H](Cc2ccc(C)cc2)N(C)C(=O)[C@@H]2CCN2C(=O)[C@H](C)N(C)C1=O [Compound 1795] ([NMeL]I[NMeA][Aze][NMePhe(4-Me)][Sar][hPhe(3-Cl-4-CF3)]P[Ac5c][NMeChg][NMeD]-Piperidide; lactam N-11) | 0.05 to 0.1 µM |
| CC[C@H](C)[C@@H]1NC(=O)[C@H](CCC(F)F)N(C)C(=O)C[C@@H](C(=O)N2CCCCC2)N(C)C(=O)[C@H](C(C)C)N(C)C(=O)C2(CCCC2)NC(=O)[C@@H]2CCCN2C(=O)[C@H](CCc2ccc(C(F)(F)F)c(Cl)c2)NC(=O)CN(C)C(=O)[C@H](CC2CCCCC2)N(C)C(=O)[C@@H]2CCN2C(=O)[C@H](C)N(C)C1=O [Compound 1797] ([NMeNva(5,5-F2)]I[NMeA][Aze][NMeCha][Sar][hPhe(3-Cl-4-CF3)]P[Ac5c][NMeV][NMeD]-Piperidide; lactam N-11) | 0.1 to 0.5 µM |
